Assay results taken from patent publication US11185520B2, “Composition comprising at least one water-soluble pharmaceutically acceptable salt of elafibranor having improved intestinal absorption” (NASHPHARM, priority 2016, dated 2021).
In brackets after ≈: the same amount, converted by molar mass. Several values for one entry are separate records, joined by “and”; a condition that tells them apart may be missing. Equal values may be shown once.

Experiments:
[1] = tested on: non-alcoholic steatohepatitis NASH; details: cited from earlier work
[2] = Thermodynamic solubility of elafibranor in aqueous medium; assay type: physicochemical
Procedure: The thermodynamic solubility of the basic elafibranor is studied over a period of 24 hours and 72 hours in various aqueous buffers in the presence or not of surfactants. Batch number EM0274L2 is used for this work. After 24 hours and 72 hours of incubation at ambient temperature (22°−24° C.), the solutions are sampled and then filtered over 0.2 μm polycarbonate filters in flasks for LCMS analyses, and diluting once in DMSO before stirring for 2 minutes (vortex or sonification).

[3] = all clinical trials; cited from earlier work
[4] = Solubility test on various elafibranor salts; assay type: physicochemical; details: for Solubility in aqueous medium / Solubility: listed as Elafibranor (GFT505) Amorphous free basic
[5] = Buffer pH 4.6, ambient temperature (22-24° C.)
[6] = Buffer pH 7.4, ambient temperature (22-24° C.)
[7] = Buffer pH 8.5, ambient temperature (22-24° C.)
[8] = Polyethylene glycol 400, ambient temperature (22-24° C.)
[9] = Propylene glycol, ambient temperature (22-24° C.)

CSc1ccc(C(=O)/C=C/c2cc(C)c(OC(C)(C)C(=O)O)c(C)c2)cc1 [elafibranor, 2-[2,6 dimethyl-4-[3-[4-(methylthio)phenyl]-3-oxo-1(E)-propenyl]phenoxyl]-2-methylpropanoic acid]
Biochemical markers of hepatic malfunctioning (ALAT, ASAT, γGT, ALP) [1]: improvement
Solubility after 24 hours [2, 5]: 44 µg/mL (≈ 0.114 mM)
Solubility after 72 hours [2, 5]: 110 μM and 0.042 mg/ml
Solubility after 24 hours [2, 6]: 194 µg/mL (≈ 0.505 mM)
Solubility after 72 hours [2, 6]: 0.234 mg/mL (≈ 0.609 mM)
Solubility after 24 hours [2, 7]: 1701 µg/mL (≈ 4.42 mM)
Solubility after 72 hours [2, 7]: 1.644 mg/mL (≈ 4.28 mM)
Solubility after 24 hours [2, 8]: 15023 µg/mL (≈ 39.1 mM)
Solubility after 72 hours [2, 8]: 15.774 mg/mL (≈ 41 mM)
Solubility after 24 hours [2, 9]: 12905 µg/mL (≈ 33.6 mM)
Solubility after 72 hours [2, 9]: 13.506 mg/mL (≈ 35.1 mM)
Solubility in an aqueous medium ([2]; in words): low
Effect of addition of cosolvent on solubility ([2]; propylene glycol or PEG 400): significantly improves the solubility
Tolerance profile [3]: very good tolerance profile
Solubility in aqueous medium ([4]; Buffer pH 4.6, ambient temperature): 44 µg/mL
Solubility in aqueous medium ([4]; Buffer pH 7.4, ambient temperature): 194 µg/mL
Solubility in aqueous medium ([4]; Buffer pH 8.5, ambient temperature): 1701 µg/mL
Solubility ([4]; Polyethylene glycol 400, ambient temperature): 15023 µg/mL
Solubility ([4]; Propylene glycol, ambient temperature): 12905 µg/mL
Solubility (according to Ph. Eur.) ([4]; aqueous medium, ambient temperature, descriptive term): Very low solubility
